The values below come from PubChem BioAssay AID1996.

Values after ≈ are worked out from the molar mass of the structure shown. Some results are limits rather than exact numbers.

For this data set the following is noted: buffer; pH 7.4; 200.0 µM.
Consider `N#Cc1ccc(C(=O)OCC(=O)N2CCN(C(=O)c3ccco3)CC2)cc1`, for which the solubility (kinetic) (usually the concentration staying in solution when a stock, usually in DMSO, is diluted into the medium) is above 55.1 µg/mL.

In the case of `Cc1cc(NC(=O)CSc2nnc(C)o2)no1`, the kinetic solubility is above 38.1 µg/mL.

Consider `COc1ccc(OCCN2C(=O)c3cccc(N)c3C2=O)cc1`, for which the kinetic solubility was found to be 1.1 µg/mL (≈ 3.52 µM).

On to `CN1CCN(c2nc3c(c(=O)[nH]2)CCC3)CC1`, for which the kinetic solubility is above 35.1 µg/mL.

For `Cc1ccc(NC(=O)c2ccc(OCc3c(C)noc3C)cc2)cc1`, the solubility (kinetic) was below 0.4 µg/mL.

For the compound `CC(C)c1ncc(C(O)c2ccccc2)n1C` (centres undefined), the kinetic solubility was above 34.5 µg/mL.

Compound `CNc1c(-n2cc(C(=O)OC)c(C(=O)OC)c2C(=O)OC)c(=O)n(C)c(=O)n1C` gave a kinetic solubility of 56.7 µg/mL (≈ 139 µM).

`O=C(NC1CC2CCCC(C1)N2Cc1ccccc1)C1CCCCC1` (centres undefined): the solubility (kinetic) is above 51.1 µg/mL.

In the case of `CC1CCCN(C(=O)CCCNC(=O)c2ccc(Cl)cc2)C1` (centres undefined), the solubility (kinetic) was above 48.4 µg/mL.

The compound `Nc1cc(=O)[nH]c(SCC(=O)Nc2cc([N+](=O)[O-])ccc2Cl)n1` yielded a solubility (kinetic) of 4.4 µg/mL (≈ 12.4 µM).

`COc1ccc(-c2nc(S(=O)(=O)c3ccccc3)c(NCCCN3CCOCC3)o2)cc1` returned a solubility (kinetic) of 67.8 µg/mL (≈ 148 µM).

Consider `Cc1ccc(CC(=O)NC2CCN(Cc3ccccc3)CC2)cc1`, for which the kinetic solubility was 41.7 µg/mL (≈ 129 µM).

`Cc1nc(C)c(C(=O)O)c(-c2cccs2)c1C(=O)O` had a kinetic solubility above 41.6 µg/mL.

In turn, `O=C(NCCCN1CCCC1=O)Nc1ccccc1F` gave a kinetic solubility above 41.9 µg/mL.

`CC1(C)CC2CC(C)(CN2S(=O)(=O)c2ccccc2[N+](=O)[O-])C1` (centres undefined): the kinetic solubility came to 2.4 µg/mL (≈ 7.09 µM).

Regarding `COc1ccc(CNC/C=C/c2ccccc2)cc1.Cl`, the solubility (kinetic) is above 43.5 µg/mL.

Turning to `O=C(Nc1ccccc1-c1ccccc1)c1ccccc1[N+](=O)[O-]`, the kinetic solubility was found to be 16.8 µg/mL (≈ 52.8 µM).

Compound `Cc1cc(C)c(NC(=O)CNC(=O)c2ccc3ncsc3c2)c(C)c1` returned a solubility (kinetic) of 6.7 µg/mL (≈ 19 µM).

In turn, `O=C(O)c1c(N2CCCCC2)ccc([N+](=O)[O-])c1N1CCCCC1` returned a kinetic solubility of 46.4 µg/mL (≈ 139 µM). Compared with the last compound, the solubility kinetic is about 6.9-fold higher.

`CCCCc1ccc(NC(=S)N2CCN(c3ccccn3)CC2)cc1`: the kinetic solubility is 0.8 µg/mL (≈ 2.26 µM).

Take `COC(=O)c1ccc(COC(=O)CNC(=O)CNC(=O)c2ccc(OC)cc2)cc1`: the kinetic solubility was determined as 16.1 µg/mL (≈ 38.9 µM). This solubility kinetic lies about 20-fold higher than the previous one.

As for `CN1CCN(c2ccc(Cl)cc2NC(=O)/C=C/c2cccc(F)c2)CC1`, the solubility (kinetic) is 34.4 µg/mL (≈ 92 µM).

Take `OCCCNc1ncnc2oc(-c3ccccc3)c(-c3ccccc3)c12`: the solubility (kinetic) is 17.5 µg/mL (≈ 50.7 µM).

`COc1cc(C2(c3ccc(O)c(OC)c3)C(=O)N(C)c3ccc(C)cc32)ccc1O` yielded a kinetic solubility of 51.4 µg/mL (≈ 127 µM).

On to `COc1ccc(N2CCN(C(=O)c3ccccc3F)CC2)c([N+](=O)[O-])c1`, for which the solubility (kinetic) was 40.7 µg/mL (≈ 113 µM).

In turn, `Cc1cc(C)cc(NC(=O)CCc2ccc(C)o2)c1` registered a solubility (kinetic) of 34.6 µg/mL (≈ 134 µM).

In the case of `CCOC(=O)C1CCCN(C(=O)c2ccc(Cl)cc2)C1` (centres undefined), the solubility (kinetic) is above 44.4 µg/mL.

`Cc1ccnc(Nc2nc(-c3ccc(O)c(O)c3)cs2)c1` displayed a kinetic solubility of 8.7 µg/mL (≈ 29.1 µM).

In turn, `Cc1ccc(C)c(NC(=O)CCN2CCC(C)CC2)c1` gave a solubility (kinetic) above 41.2 µg/mL.

`COc1ccc(NC(=S)NCc2ccc(F)cc2)cc1` showed a solubility (kinetic) above 43.6 µg/mL.

`Cn1nccc1NS(=O)(=O)c1ccc(NC(=O)C(F)(F)F)cc1`: the solubility (kinetic) is above 52.2 µg/mL.

The compound `COCCN1CCn2c(nc3cc([N+](=O)[O-])ccc32)C1` gave a solubility (kinetic) above 41.4 µg/mL.

On to `COc1ccc(/C(N)=N/OC(=O)C2CCCCC2)cc1OC`, for which the kinetic solubility amounted to 35.2 µg/mL (≈ 115 µM).

With `COc1ccc(CCNc2c([N+](=O)[O-])ncn2C)cc1OC`, the kinetic solubility turned out to be 45.8 µg/mL (≈ 150 µM).

As for `CC1CCN(C(=O)COC(=O)c2ccc([N+](=O)[O-])o2)CC1`, the kinetic solubility was above 44.4 µg/mL.

Turning to `Cc1ccccc1OCC(=O)Nc1ccccc1-c1ccccc1`, the solubility (kinetic) was below 0.7 µg/mL.

With `O=C(Cc1ccc(Br)cc1)NCCCn1ccnc1`, the kinetic solubility was above 48.3 µg/mL.

As for `C/C(Cl)=C/Cc1c(C)[nH]c2c(ccc3ccccc32)c1=O`, the kinetic solubility is below 0.6 µg/mL.

As for `Cc1cccc(NS(=O)(=O)c2ccc3[nH]c(=O)[nH]c3c2)c1C`, the kinetic solubility was determined as 5 µg/mL (≈ 15.8 µM).
